Experimental data published in US12298308B2, “Neoadjuvant chemotherapy induces breast cancer metastasis through a TMEM-mediated mechanism” (Albert Einstein College of Medicine, priority 2017, dated 2025).

Tested on: lung metastases
Experiment: Lung metastasis and single cancer cell dissemination in lungs
Format: in vivo, mouse
Text: To further determine the effect of paclitaxel on cancer cell dissemination to distant sites, we harvested lungs and evaluated metastatic foci histologically. An increase was found in both the metastatic incidence (>1 micrometastatic focus of >5 tumor cells) (FIG. 3H) and the number of cancer cell micrometastases in the lungs of paclitaxel-treated mice (FIG. 3I). In addition, we quantified single cell dissemination of breast cancer cells in the lungs of FVB-recipient mice after syngeneic transplantation of MMTV-PyMT/Dendra2^+ tumors using ex vivo microscopy, and found an approximately 2-fold increase (p<0.01) of single Dendra2^+ breast cancer cells in the lungs of paclitaxel-treated mice (FIG. 3J). Overall, data presented in this section indicate that in early-stage breast cancers chemotherapy increases vascular permeability at TMEM sites which is accompanied by increased cancer cell dissemination.
Histology and TMEM Immunohistochemistry.

For `CC(=O)O[C@H]1C(=O)[C@@]2(C)[C@H]([C@H](OC(=O)c3ccccc3)[C@]3(O)C[C@H](OC(=O)[C@H](O)[C@@H](NC(=O)c4ccccc4)c4ccccc4)C(C)=C1C3(C)C)[C@]1(OC(C)=O)CO[C@@H]1C[C@@H]2O` [paclitaxel], the “increase of single Dendra2^+ breast cancer cells in the lungs” value (FVB recipients of MMTV-PyMT/Dendra2^+ tumors, ex vivo microscopy, p<0.01) was “approximately 2 fold”, the “disseminated cells in the lungs” value (Mena^-/- PyMT-CFP transplants) was “failed to boost” and the “metastatic incidence (>1 micrometastatic focus of >5 tumor cells) in lungs” value (histological evaluation) was “increase”. The “number of cancer cell micrometastases in the lungs” value (histological evaluation) was “increase”.
